In brackets after ≈: the same amount, converted by molar mass.
Columns and labels:
[1] = test system: Aspergillus fumigatous; test: In vivo anti-fungal activity, ED50 in systemically infected mice; set-up: species or system Swiss albino mice; details: mice infected i.v. with Aspergillus fumigatous, dosing for five days
Procedure: The in-vivo evaluation of the compound can be carried out at a series of dose levels by oral or I. V. injection to mice which are inoculated I.V. with the minimum lethal dose of Candida albicans, Cryptococcus neoformans or Aspergillus fumigatus by the tail vein. Activity is based on the survival of a treated group of mice after the death of an untreated group of mice. For Aspergillus and Cryptococcus infections, target organs were cultured after treatment to document the number of mice cured of the infection for further assessment of activity.
Method: Briefly, Swiss albino mice weighing 20±2 G were injected intravenously (tail vein) with sufficient fungal cells to kill 100% of the untreated animals for Aspergillus fumigatous strain used. In all cases each group comprised of six mice. Five does levels, utilizing doubling dilution range, were employed per determination ranging from 25 to 1.56 mg/kg BW. Dosing was carried out for five days starting after 30 minutes of infection. […] Treated animals were monitored twice daily for 14 days post infection at which time the experiment was terminated and ED50 was calculated.

[2] = test system: Penicilliuim 2306; test: MIC determination (NCCLS broth method); assay type: cell-based, Penicillium
From the text: (§1) The in-vitro evaluation of the antifungal activity of the compounds can be performed by determining the minimum inhibitory concentration (MIC) as shown in Table 1 which is the concentration of the test compound in Rosewell Park Memorial Institute (RPMI) 1640 liquid medium buffered with 3-(Morpholino)propanesulphonic acid (MOPS) to pH 7, at which there is significant inhibition of the particular fungi. In practice the National Committee for Clinical Laboratory Standard (NCCLS) M27A document for Candida and Cryptococcus and M38P for Aspergillus was used to determine the MIC against yeast and filamentous fungi with suitable modifications for dermatophytes to other filamentous fungi. Three quality control strains were included each time the MIC were determined and readings recorded only when the Quality Control results fell into the acceptable range. After MIC results had been recorded, 100 μl from each of the well showing no growth was spread over Sabouraud Dextrose Agar (SDA) to determine the minimum fungicidal concentration (MFC) as shown in Table 2.

[3] = test system: A fumigatus SI-1 - 1019; test: MFC determination (subculture on Sabouraud Dextrose Agar); assay type: cell-based, Aspergillus fumigatus
From the text: as §1

[4] = test system: A fumigatus 1008; test: as above; assay type: cell-based, Aspergillus fumigatus
From the text: as §1

[5] = test system: All fungal pathogens; test: Comparative in vitro MIC, isolate panel; assay type: cell-based
From the text: as §1
(§2) A comparative in vitro and in vivo biologically activity data of the compound of our invention, 2-{[1R,2R]-2-(2,4-Difluorophenyl)-2-hydroxy-1-methyl-3-(1H-1,2,4-triazole-1-yl)propyl}-4-[(2′,2′,3′,3′-tetrafluoropropoxyphenyl)-3-(2H,4H)-1,2,4-thiotriazolone (Compound No. 3) with 2-[(1R,2R)-2-(2,4-difluorophenyl)-2-hydroxy-1-methyl-3-(1H-1,2,4-triazol-1-yl)propyl]-4-(2′,2′,3′,3′-tetraflouropropoxyphenyl)-3(2H,4H)-1,2,4-triazolone (TAK 187) and standard antifungal pharmaceuticals is given below: […]

[6] = test system: All Filamentous isolates; test: Comparative in vitro MIC, isolate panel; assay type: cell-based
From the text: as §1, §2

[7] = test system: Penicillium spp. isolates; test: Comparative in vitro MIC, isolate panel; assay type: cell-based
From the text: as §1, §2

[8] = test system: All Candida isolates; test: Comparative in vitro MIC, isolate panel; assay type: cell-based
From the text: as §1, §2

[9] = test system: Rhizoupus spp. isolates; test: Comparative in vitro MIC, isolate panel; assay type: cell-based
From the text: as §1, §2

[10] = test system: Aspergillus fumigatus isolates; test: Comparative in vitro MIC, isolate panel; assay type: cell-based
From the text: as §1, §2

[11] = test system: Fusarium spp. isolates; test: Comparative in vitro MIC, isolate panel; assay type: cell-based
From the text: as §1, §2

[12] = test system: P variotii 22319; test: MIC determination (NCCLS broth method); assay type: cell-based, Paecillomyces variotii
From the text: as §1

[13] = test system: Mucor (Ceylon); test: MIC determination (NCCLS broth method); assay type: cell-based
From the text: as §1

[14] = test system: Penicillium 1641; test: MIC determination (NCCLS broth method); assay type: cell-based
From the text: as §1

[15] = test system: A fumigatus L - 1034; test: MIC determination (NCCLS broth method); assay type: cell-based, Aspergillus fumigatus
From the text: as §1

[16] = test system: A fumigatus I - 1011; test: MIC determination (NCCLS broth method); assay type: cell-based, Aspergillus fumigatus
From the text: as §1

[17] = test system: A fumigatus SI-1 - 1019; test: MIC determination (NCCLS broth method); assay type: cell-based, Aspergillus fumigatus
From the text: as §1

[18] = test system: A fumigatus J - 1032; test: MIC determination (NCCLS broth method); assay type: cell-based, Aspergillus fumigatus
From the text: as §1

[19] = test system: A fumigatus K - 1033; test: MIC determination (NCCLS broth method); assay type: cell-based, Aspergillus fumigatus
From the text: as §1

[20] = test system: A fumigatus II - 1012; test: MIC determination (NCCLS broth method); assay type: cell-based, Aspergillus fumigatus
From the text: as §1

[21] = test system: A fumigatus 1008; test: MIC determination (NCCLS broth method); assay type: cell-based, Aspergillus fumigatus
From the text: as §1

[22] = test system: A fumigatus PGI - 1023; test: MIC determination (NCCLS broth method); assay type: cell-based, Aspergillus fumigatus
From the text: as §1

[23] = test system: C neoformans I; test: MIC determination (NCCLS broth method); assay type: cell-based, Cryptococcus neoformans
From the text: as §1

[24] = test system: C neoformans M-106; test: MIC determination (NCCLS broth method); assay type: cell-based, Cryptococcus neoformans
From the text: as §1

[25] = test system: P variotii 22319; test: MFC determination (subculture on Sabouraud Dextrose Agar); assay type: cell-based, Paecillomyces variotii
From the text: as §1

Row | SMILES | Minimum Inhibitory Concentration (MIC) [2] [µg/mL] | Minimum Fungicidal Concentration (MFC) [3] [µg/mL] | Minimum Fungicidal Concentration (MFC) [4] [µg/mL] | MIC50 [5] [µg/mL] | MIC90 [5] [µg/mL] | MIC G.M. [5] [µg/mL] | Minimum Inhibitory Concentration (MIC) [12] [µg/mL] | Minimum Inhibitory Concentration (MIC) [13] [µg/mL] | Minimum Inhibitory Concentration (MIC) [14] [µg/mL] | Minimum Inhibitory Concentration (MIC) [15] [µg/mL] | Minimum Inhibitory Concentration (MIC) [16] [µg/mL] | Minimum Inhibitory Concentration (MIC) [17] [µg/mL] | Minimum Inhibitory Concentration (MIC) [18] [µg/mL] | Minimum Inhibitory Concentration (MIC) [19] [µg/mL] | Minimum Inhibitory Concentration (MIC) [20] [µg/mL] | Minimum Inhibitory Concentration (MIC) [21] [µg/mL] | Minimum Inhibitory Concentration (MIC) [22] [µg/mL] | Minimum Inhibitory Concentration (MIC) [23] [µg/mL] | Minimum Inhibitory Concentration (MIC) [24] [µg/mL] | Minimum Fungicidal Concentration (MFC) [25] [µg/mL] | other results
1 | C[C@@H](n1ncn(-c2ccc(OCC(F)(F)C(F)F)cc2)c1=O)[C@](O)(Cn1cncn1)c1ccc(F)cc1F [TAK 187, 2-[(1R,2R)-2-(2,4-difluorophenyl)-2-hydroxy-1-methyl-3-(1H-1,2,4-triazol-1-yl)propyl]-4-(2′,2′,3′,3′-tetraflouropropoxyphenyl)-3(2H,4H)-1,2,4-triazolone] | 8 | 32 | 8 | 8 (≈ 14.7 µM) | 32 (≈ 59 µM) | 4.16 (≈ 7.67 µM) | 0.25 | 8 | 16 | 4 | 4 | 2 | 4 | 8 | 8 | 4 | 8 | 0.03 | 0.06 | 32 | ED50 ([1]; Day 7 post infection): 10.08 mg/kg body weight; ED50 ([1]; Day 14 post infection): 20.39 mg/kg body weight; MIC50 [6]: 8 µg/mL (≈ 14.7 µM); MIC90 [6]: 32 µg/mL (≈ 59 µM); MIC G.M. [6]: 7.246 µg/mL (≈ 13.4 µM); MIC50 [7]: 16 µg/mL (≈ 29.5 µM); MIC90 [7]: 64 µg/mL (≈ 118 µM); MIC G.M. [7]: 18.664 µg/mL (≈ 34.4 µM); MIC50 [8]: 0.5 µg/mL (≈ 0.922 µM); MIC90 [8]: 2 µg/mL (≈ 3.69 µM); MIC G.M. [8]: 0.45 µg/mL (≈ 0.83 µM); MIC50 [9]: 4 µg/mL (≈ 7.37 µM); MIC90 [9]: 4 µg/mL (≈ 7.37 µM); MIC G.M. [9]: 4 µg/mL (≈ 7.37 µM); MIC50 [10]: 8 µg/mL (≈ 14.7 µM); MIC90 [10]: 8 µg/mL (≈ 14.7 µM); MIC G.M. [10]: 7.4 µg/mL (≈ 13.6 µM); MIC50 [11]: 32 µg/mL (≈ 59 µM); MIC90 [11]: 64 µg/mL (≈ 118 µM); MIC G.M. [11]: 45.255 µg/mL (≈ 83.4 µM)
2 | C[C@@H](n1ncn(-c2ccc(N3CCN(c4ccc(Cl)cc4)CC3)cc2)c1=S)[C@](O)(Cn1cncn1)c1ccc(F)cc1F [Compound No. 1, 2-{[1R,2R]-2-(2,4-Difluorophenyl)-2-hydroxy-1-methyl-3-(1H-1,2,4-triazole-1-yl)propyl}-4-{4-[4-(4-chlorophenyl)-1-piperizinyl]phenyl}-3-(2H,4H)-1,2,4-thiotriazolone] | 0.016 | 0.03 | 0.03 | – | – | – | 0.004 | 0.004 | 0.25 | 0.008 | 0.016 | 0.016 | 0.008 | 0.008 | 0.008 | 0.016 | 0.016 | 0.008 | 0.008 | 0.06 | –
3 | C[C@@H]1[C@H](O)[C@@H](C)/C=C/C=C/C=C/C=C/C=C/C=C/C=C/[C@H](O[C@@H]2O[C@H](C)[C@@H](O)[C@H](N)[C@@H]2O)C[C@@H]2O[C@](O)(C[C@@H](O)C[C@@H](O)[C@H](O)CC[C@@H](O)C[C@@H](O)CC(=O)O[C@H]1C)C[C@H](O)[C@H]2C(=O)O [Amphotericin-B, Amphotericin B] | 0.25 | 2 | 1 | 0.25 (≈ 0.271 µM) | 0.5 (≈ 0.541 µM) | 0.21 (≈ 0.227 µM) | 0.03 | 0.06 | 0.06 | 0.25 | 0.25 | 0.5 | 0.25 | 0.125 | 0.125 | 0.25 | 0.125 | 0.06 | 0.03 | 2 | MIC50 [6]: 0.25 µg/mL (≈ 0.271 µM); MIC90 [6]: 0.5 µg/mL (≈ 0.541 µM); MIC G.M. [6]: 0.22 µg/mL (≈ 0.238 µM); MIC50 [7]: 0.25 µg/mL (≈ 0.271 µM); MIC90 [7]: 0.25 µg/mL (≈ 0.271 µM); MIC G.M. [7]: 0.144 µg/mL (≈ 0.156 µM); MIC50 [8]: 0.25 µg/mL (≈ 0.271 µM); MIC90 [8]: 0.25 µg/mL (≈ 0.271 µM); MIC G.M. [8]: 0.22 µg/mL (≈ 0.238 µM); MIC50 [9]: 0.125 µg/mL (≈ 0.135 µM); MIC90 [9]: 0.25 µg/mL (≈ 0.271 µM); MIC G.M. [9]: 0.177 µg/mL (≈ 0.192 µM); MIC50 [10]: 0.25 µg/mL (≈ 0.271 µM); MIC90 [10]: 0.5 µg/mL (≈ 0.541 µM); MIC G.M. [10]: 0.27 µg/mL (≈ 0.292 µM); MIC50 [11]: 0.5 µg/mL (≈ 0.541 µM); MIC90 [11]: 2 µg/mL (≈ 2.16 µM); MIC G.M. [11]: 0.841 µg/mL (≈ 0.91 µM)

— patent US6710049B2, “Azole compounds as anti-fungal agents” (Ranbaxy Laboratories Limited, priority 2000, dated 2004)
